# Values quoted from earlier work, collected in patent publication US11129837B2, “Salicylate compound composition” (Innovate Pharmaceuticals Limited, priority 2014, dated 2021).
# Key:
# glioma stem cells = conditions: versus normal glial cells or neural stem cells
# rat stomachs = conditions: for effect on PGE2: given either orally or subcutaneously
# cancer = conditions: daily aspirin
# [1] = human patients
# [2] = system: malignant glioblastoma RG2 cells; conditions: administered the day before tumour cell inoculation and in established tumours
# colorectal cancer = conditions: daily ingestion over an 8-10 year period, at any dose
# [3] = system: PGE2 synthesis in C6 cells; conditions: high and low dose
Structure (SMILES),growth of glioma stem cells in culture (glioma stem cells),effect on PGE2 (rat stomachs),gastric damage (rat stomachs; given orally or subcutaneously),reduction of cancer mortality (cancer),maximum tolerated dose [1],apoptosis (A172 glioblastoma cells),growth of RG2 glioblastoma cells in rat [2],reduction of CRC-associated mortality (colorectal cancer),reduction of the risk of colorectal cancer (colorectal cancer),PGE2 synthesis [3]
"CC(=O)OCC(COC(C)=O)OC(C)=O [Glycerin triacetate, 1,3-Diacetyloxypropan-2-yl acetate]",slowing the growth,,,,,,,,,
COc1ccc2c(c1)c(CC(=O)O)c(C)n2C(=O)c1ccc(Cl)cc1 [Indomethacin],,decrease PGE2,,,,,,,,
"CC(=O)Oc1ccccc1C(=O)O [aspirin, 2-(acetoxy)benzoic acid]",,decrease PGE2,only caused damage when given orally,around 20%,about 4 g,induced significant apoptosis,significantly inhibited the growth,35%,24%,directly inhibited PGE2 synthesis
